For orientation: half-life means the time needed for the level to fall by half in the phase considered.

Counter-ions that a name gives are not always drawn.

One series concerns S. pneumoniae #1629. Description: MIC assay, 96 well broth dilution with MTT staining. The format is cell-based. To be noted: TSB containing 5% sheep blood, 35-37° C., 20 h. As to the method:
(§1) A 96 well plate with 100 μL test medium in all wells was prepared by handheld multipipettor. A stock solution of the antibiotic or compound in DMSO (0.05˜10 mg/mL, 5 μL) and the same medium (95 μL) were put together into column one, where the compound concentration doubled the highest one to be tested. Two columns were necessary for each compound to check the reproducibility. The compound was diluted by adding 100 μL from column one to column two with a 50% volume mix done three times; diluting serially across the plate was continued.
(§2) The day before the assay was scheduled to be run, strains were suspended in the test media (Brain Heart Infusion (BHI) containing 0.1% casamino acids for S. aureus, S. epidermidis, and E. faecalis, Trypticase Soy Broth (TSB) containing 5% sheep blood for S. pneumoniae, and Lysogeny Broth (LB) for E. coli) and incubated overnight at 35-37° C. The suspension was diluted with the same media to 1%, 100 μL of which was added to each well of the MIC plate. The MIC plate was incubated at 35-37° C. for 20 h. A thiazolyl blue tetrazolium bromide (MTT) solution (1 mg/mL-water, 50 μL) was added into each well and the resulting MIC plate was incubated at 35-37° C. for a few hours to stain wells in which cell proliferated. Growth is also visible as any turbidity in wells.
(In general: In broth dilution the organism is exposed to a series of concentrations in liquid medium.)

In another series the test system is S. pneumoniae 6303. The description is as above. The format is cell-based. To be noted: TSB containing 5% sheep blood, 35-37° C., 20 h. How it is done:
as §1, §2

The subject of a further series is E. coli NR698. It counts as cell-based. To be noted: LB, 35-37° C., 20 h. On the set-up: unit not given beside the values. How it is done:
as §1, §2

The test system of the next series is E. faecalis 29212. Description: MIC assay, 96 well broth dilution with MTT staining. The format is cell-based. Details: unit not given beside the values. To be noted: BHI containing 0.1% casamino acids, 35-37° C., 20 h. As to the method: as §1, §2
In another series the test system is S. aureus 13709. The description is as above. The format is cell-based. Details: unit not given beside the values. As to conditions: BHI containing 0.1% casamino acids, 35-37° C., 20 h. As to the method: as §1, §2
A further series has as its system E. faecalis 33186. The description is as above. The format is cell-based. Details: unit not given beside the values. To be noted: BHI containing 0.1% casamino acids, 35-37° C., 20 h. As to the method:
as §1, §2

Another series concerns S. epidermidis 700562. Described as above. The format is cell-based. Details: unit not given beside the values. As to conditions: BHI containing 0.1% casamino acids, 35-37° C., 20 h. As to the method: as §1, §2
In the next series the test system is S. aureus 25923. The series is described as above. On the set-up: unit not given beside the values. To be noted: S. aureus 25923 (second strain line); BHI containing 0.1% casamino acids; 35-37° C., 20 h. It counts as cell-based. As to the method: as §1, §2
A further series concerns S. epidermidis 1228. The series is described as above. The format is cell-based. Details: unit not given beside the values. As to conditions: BHI containing 0.1% casamino acids, 35-37° C., 20 h. As to the method: as §1, §2
In the next series the test system is E. coli MG1655. The description is as above. It counts as cell-based. On the set-up: unit not given beside the values. To be noted: LB, 35-37° C., 20 h. How it is done:
as §1, §2

Another series relates to Gram-positive organisms. To be noted: against Gram-positive organisms; cited from earlier work.
A short description of series [1]: Pharmacokinetics following IV and SC administration. It counts as in vivo. To be noted: for half-life: NCA analysis. As to the method:
Curtailing the tail portion of Moenomycin A (MmA) led to shorter half-life. […] The clearance following IV administration was very low leading higher exposure (3 mL/hr/kg) and volume of distribution (Vss) was 0.5 L/kg.

[2] abbreviates: S. aureus 13709 (first strain line).
Where [3] appears, read: S. aureus 13709 (third strain line).

Consider `CCCCCCCCCCCCCCCCOC(COP(=O)(O)OC1OC(C(N)=O)C(C)(O)C(OC(N)=O)C1OC1OC(COC2OC(CO)C(O)C(O)C2O)C(OC2OC(C)C(OC3OC(C(=O)NC4=C(O)CCC4=O)C(O)C(O)C3O)C(O)C2NC(C)=O)C(O)C1NC(C)=O)C(=O)O.N` [1g, N1-[(2-Hydroxy-5-oxo-cyclopenten-1-yl)-(5S)-β-D-galactopyranuronamide]-(1→4)-2-acetamide-2,6-dideoxy-β-D-gluopyranosyl-(1→4)-[β-D-glucopyranosyl-(1→6)]-2-acetamido-2-deoxy-β-D-glucopyranosyl)-(1→2)-3-O-carbamoyl-1-O—{[(R)-2-carboxy-2-(hexadecan-1-yloxy)ethoxy]hydroxyphosphoryl}-4-C-methyl-α-D-glucopyranuronamide], for which the MIC in the series on S. pneumoniae #1629 was 16; in the series with S. pneumoniae 6303 it was 16; in the series on E. coli NR698, 0.16; against E. faecalis 29212, 31; with S. aureus 13709 (setting [2]), 16; against S. aureus 13709 (setting [3]) it was 16. The MIC against E. faecalis 33186 was determined as 16; in the series with S. epidermidis 700562, 31; with S. aureus 25923 it was 16; in the series with S. epidermidis 1228 it was 16; in the series with E. coli MG1655 it was 250.

Consider `CC(=O)NC1C(OC2C(COC3OC(CO)C(O)C(O)C3O)OC(OC3C(OP(=O)(O)OCC(OCc4cccc(OCc5cccc(-c6cccc(OCc7ccccc7)c6)c5)c4)C(=O)O)OC(C(N)=O)C(C)(O)C3OC(N)=O)C(NC(C)=O)C2O)OC(C)C(OC2OC(C(=O)NC3=C(O)CCC3=O)C(O)C(O)C2O)C1O.N` [1i, N1-[(2-Hydroxy-5-oxo-cyclopenten-1-yl)-(5S)-β-D-galactopyranuronamide]-(1→4)-2-acetamide-2,6-dideoxy-β-D-gluopyranosyl-(1→4)-[β-D-glucopyranosyl-(1→6)]-2-acetamido-2-deoxy-β-D-glucopyranosyl)-(1→2)-3-O-carbamoyl-1-O—{[(R)-2-carboxy-2-(3-((3′-(benzyloxy)-[1,1′-biphenyl]-3-yl)methoxy)phenylmethan-1-yloxy)ethoxy]hydroxyphosphoryl}-4-C-methyl-α-D-glucopyranuronamide], for which the MIC is 7.8 in the series on S. pneumoniae #1629; 3.9 with S. pneumoniae 6303; 0.49 with E. coli NR698; 16 in the series with E. faecalis 29212; 7.8 with S. aureus 13709 (setting [2]); 7.8 with S. aureus 13709 (setting [3]). Also, the MIC was 32 in the series with E. faecalis 33186; 7.8 in the series with S. epidermidis 700562; 7.8 in the series with S. aureus 25923; 3.9 in the series with S. epidermidis 1228; greater than 250 in the series with E. coli MG1655.

On to `CC(=O)NC1C(OC2C(COC3OC(CO)C(O)C(O)C3O)OC(OC3C(OP(=O)(O)OCC(OCc4cccc(OCc5cccc(-c6cccc(C)c6)c5)c4)C(=O)O)OC(C(N)=O)C(C)(O)C3OC(N)=O)C(NC(C)=O)C2O)OC(C)C(OC2OC(C(=O)NC3=C(O)CCC3=O)C(O)C(O)C2O)C1O.N` [1j, N1-[(2-Hydroxy-5-oxo-cyclopenten-1-yl)-(5S)-β-D-galactopyranuronamide]-(1→4)-2-acetamide-2,6-dideoxy-β-D-gluopyranosyl-(1→4)-[β-D-glucopyranosyl-(1→6)]-2-acetamido-2-deoxy-β-D-glucopyranosyl)-(1→2)-3-O-carbamoyl-1-O—{[(R)-2-carboxy-2-(3-((3′-methyl-[1,1′-biphenyl]-3-yl)methoxy)phenylmethan-1-yloxy)ethoxy]hydroxyphosphoryl}-4-C-methyl-α-D-glucopyranuronamide], for which the MIC against S. pneumoniae #1629 is given as 16; in the series with S. pneumoniae 6303 it was 16; in the series with E. coli NR698 it was 0.98; with E. faecalis 29212, >250 >250; against S. aureus 13709 (setting [2]), >250 >250 >250; in the series with S. aureus 13709 (setting [3]) it was >250 >250 >250. Besides, the MIC in the series on E. faecalis 33186 is >250 >250; against S. epidermidis 700562 it was greater than 250; against S. aureus 25923 it was >250 >250 >250; against S. epidermidis 1228 it was 125; against E. coli MG1655, greater than 250.

As to `C=C(C/C=C(\C)CCC=C(C)C)CCC(C)(C)/C=C/CC/C(C)=C/CO[C@@H](COP(=O)(O)O[C@H]1O[C@H](C(N)=O)[C@@](C)(O)[C@H](OC(N)=O)[C@H]1O[C@@H]1O[C@H](CO[C@@H]2O[C@H](CO)[C@@H](O)[C@H](O)[C@H]2O)[C@@H](O[C@@H]2O[C@H](C)[C@@H](O[C@@H]3O[C@H](C(=O)NC4=C(O)CCC4=O)[C@H](O)[C@H](O)[C@H]3O)[C@H](O)[C@H]2NC(C)=O)[C@H](O)[C@H]1NC(C)=O)C(=O)O` [Moenomycin A], the “potency compared with vancomycin” value with Gram-positive organisms is on record as 10-1000 times. Moreover, the clearance in series [1] (IV administration (2 mpk)) came to 3 mL/h/kg. The “volume of distribution (Vss)” value in series [1] (IV administration (2 mpk)) was 0.5 L/kg. Besides, the half-life in series [1] (IV administration (2 mpk)) was determined as 209 h; in [1] (SC administration (10 mpk)), 180 h. Besides, the “% SC bioavailability” value in series [1] (SC (10 mpk) vs IV (2 mpk)) is on record as 89%. The systemic exposure entry in series [1] (following IV (2 mpk) and SC (10 mpk) administration) is given as “significant systemic exposure”. Besides, the MIC with E. coli NR698 is reported as 0.0098; against S. aureus 13709 (setting [2]), 0.16; against S. aureus 13709 (setting [3]), 0.078; with S. aureus 25923 it was 0.16; against E. coli MG1655 it was 31.

As to `CN[C@H](CC(C)C)C(=O)N[C@H]1C(=O)N[C@@H](CC(N)=O)C(=O)N[C@H]2C(=O)N[C@H]3C(=O)N[C@H](C(=O)N[C@H](C(=O)O)c4cc(O)cc(O)c4-c4cc3ccc4O)[C@H](O)c3ccc(c(Cl)c3)Oc3cc2cc(c3O[C@@H]2O[C@H](CO)[C@@H](O)[C@H](O)[C@H]2O[C@H]2C[C@](C)(N)[C@H](O)[C@H](C)O2)Oc2ccc(cc2Cl)[C@H]1O` [Vancomycin•HCl, reference compound], the MIC came out at 0.49 against S. pneumoniae #1629; 0.49 against S. pneumoniae 6303; 0.49 against E. coli NR698; 3.9 against E. faecalis 29212; 3.9 in the series on S. aureus 13709 (setting [2]); 2.0 in the series with S. aureus 13709 (setting [3]). Also, the MIC was 2.0 with E. faecalis 33186; 3.9 with S. epidermidis 700562; 3.9 against S. aureus 25923; 2.0 against S. epidermidis 1228; 250 against E. coli MG1655.
